PubChem BioAssay AID248 (DTP/NCI, 2004)
Values joined by “and” are separate entries in the source; they are usually repeats but may differ in a detail not shown here. Identical values can stand only once. Inconclusive results and toxic doses are left out. No stated cut-off is given here; in the data, active means T/C of 150% or more; inactive means T/C below 125%.

System: L1210 leukemia ip in BDF1 mice, survival T/C
Test: NCI In Vivo Anticancer Drug Screen. Data for tumor model L1210 Leukemia (intraperitoneal) in B6D2F1 (BDF1) mice
Conditions: endpoint: mean survival time, higher = longer survival
Outline: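 Transplanted-tumor mice were given test agent; controls received vehicle only. Survival readings from the two groups were divided (treated over control).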

[1] = dose: 100.0 mg/kg/injection, schedule: Q01DX009 (ip), vehicle: saline
[2] = dose: 200.0 mg/kg/injection, schedule: Q01DX009 (ip), vehicle: saline
[3] = dose: 400.0 mg/kg/injection, schedule: Q01DX009 (ip), vehicle: saline
[4] = dose: 100.0 mg/kg/injection, schedule: Q01DX001 (ip), vehicle: Klucel (hydroxypropylcellulose) (HPC)
[5] = dose: 50.0 mg/kg/injection, schedule: Q01DX001 (ip), vehicle: saline
[6] = dose: 100.0 mg/kg/injection, schedule: Q01DX001 (ip), vehicle: saline
[7] = dose: 200.0 mg/kg/injection, schedule: Q01DX001 (ip), vehicle: saline
[8] = dose: 100.0 mg/kg/injection, schedule: Q01DX009 (ip), vehicle: Klucel (hydroxypropylcellulose) (HPC)
[9] = dose: 100.0 mg/kg/injection, schedule: Q04DX003 (ip), vehicle: Klucel (hydroxypropylcellulose) (HPC)
[10] = dose: 100.0 mg/kg/injection, schedule: Q01DX009 (ip), vehicle: saline with Tween-80
[11] = dose: 200.0 mg/kg/injection, schedule: Q01DX009 (ip), vehicle: saline with Tween-80
[12] = dose: 100.0 mg/kg/injection, schedule: Q04DX003 (ip), vehicle: saline with Tween-80
[13] = dose: 200.0 mg/kg/injection, schedule: Q04DX003 (ip), vehicle: saline with Tween-80
[14] = dose: 400.0 mg/kg/injection, schedule: Q04DX003 (ip), vehicle: saline with Tween-80

Measured: T/C

CC1CN(c2ccc([N+](=O)[O-])cc2)C(C)CN1N=O (configuration not stated)
inactive: dose: 25.0 mg/kg/injection, schedule: Q01DX009 (ip), vehicle: saline 106 % of control | dose: 50.0 mg/kg/injection, schedule: Q01DX009 (ip), vehicle: saline 104 % of control | [1] 98 % of control | [2] 97 % of control | [3] 95 % of control

O=C1C=C(C(c2ccccc2)c2ccccc2)C(=O)C=C1NS(=O)(=O)c1ccccc1
inactive: dose: 25.0 mg/kg/injection, schedule: Q01DX001 (ip), vehicle: Klucel (hydroxypropylcellulose) (HPC) 106 % of control | dose: 50.0 mg/kg/injection, schedule: Q01DX001 (ip), vehicle: Klucel (hydroxypropylcellulose) (HPC) 97 % of control | [4] 95 % of control

Nc1nccs1
inactive: dose: 0.75 mg/kg/injection, schedule: Q01DX009 (ip), vehicle: carboxymethylcellulose (CMC) 100 % of control | dose: 1.5 mg/kg/injection, schedule: Q01DX009 (ip), vehicle: carboxymethylcellulose (CMC) 103 % of control | dose: 1.5 mg/kg/injection, schedule: Q04DX002 (ip), vehicle: saline with Tween-80 93 % of control | dose: 3.0 mg/kg/injection, schedule: Q01DX009 (ip), vehicle: carboxymethylcellulose (CMC) 100 % of control | dose: 3.0 mg/kg/injection, schedule: Q04DX002 (ip), vehicle: saline with Tween-80 90 % of control | dose: 3.5 mg/kg/injection, schedule: Q04DX002 (ip), vehicle: saline with Tween-80 91 % of control | dose: 6.0 mg/kg/injection, schedule: Q01DX009 (ip), vehicle: carboxymethylcellulose (CMC) 100 % of control | dose: 12.0 mg/kg/injection, schedule: Q01DX009 (ip), vehicle: carboxymethylcellulose (CMC) 103 % of control | dose: 12.0 mg/kg/injection, schedule: Q04DX002 (ip), vehicle: saline with Tween-80 101 % of control and 91 % of control

COC(=O)C1(C(=O)OC)NNC(=O)c2cc(Br)ccc2N1
inactive: [5] 101 % of control | [6] 89 % of control | [7] 95 % of control

c1ccc2cc3c(ccc4cccc[n+]43)cc2c1
inactive: [5] 119 % of control

C[Si](C)(CCl)c1ccccc1
inactive: dose: 100.0 mg/kg/injection, schedule: Q04DX003 (ip), vehicle: saline 107 % of control | dose: 200.0 mg/kg/injection, schedule: Q04DX003 (ip), vehicle: saline 105 % of control | dose: 400.0 mg/kg/injection, schedule: Q04DX003 (ip), vehicle: saline 100 % of control

CN(C)CCC(=O)O
inactive: [1] 92 % of control | dose: 100.0 mg/kg/injection, schedule: Q04DX003 (ip), vehicle: saline sonified 108 % of control | [2] 97 % of control | dose: 200.0 mg/kg/injection, schedule: Q04DX003 (ip), vehicle: saline sonified 105 % of control | [3] 94 % of control | dose: 400.0 mg/kg/injection, schedule: Q04DX003 (ip), vehicle: saline sonified 95 % of control

Cc1ccc(S(=O)(=O)N=S(CCCl)CCCl)cc1
inactive: dose: 100.0 mg/kg/injection, schedule: Q04DX002 (ip), vehicle: saline 92 % of control | dose: 200.0 mg/kg/injection, schedule: Q04DX002 (ip), vehicle: saline 99 % of control | dose: 400.0 mg/kg/injection, schedule: Q04DX002 (ip), vehicle: saline 101 % of control

COC(=O)C1(C(=O)OC)C2CCCCC21C (configuration not stated)
inactive: [4] 103 % of control | [8] 102 % of control | [9] 106 % of control | dose: 200.0 mg/kg/injection, schedule: Q01DX001 (ip), vehicle: Klucel (hydroxypropylcellulose) (HPC) 102 % of control | dose: 200.0 mg/kg/injection, schedule: Q01DX009 (ip), vehicle: Klucel (hydroxypropylcellulose) (HPC) 101 % of control | dose: 200.0 mg/kg/injection, schedule: Q04DX003 (ip), vehicle: Klucel (hydroxypropylcellulose) (HPC) 106 % of control | dose: 400.0 mg/kg/injection, schedule: Q01DX001 (ip), vehicle: Klucel (hydroxypropylcellulose) (HPC) 95 % of control | dose: 400.0 mg/kg/injection, schedule: Q01DX009 (ip), vehicle: Klucel (hydroxypropylcellulose) (HPC) 102 % of control | dose: 400.0 mg/kg/injection, schedule: Q04DX003 (ip), vehicle: Klucel (hydroxypropylcellulose) (HPC) 101 % of control

CC1=CC(=O)C(c2ccccc2)CC1 (configuration not stated) (tested in a mixture with another compound)
inactive: dose: 50.0 mg/kg/injection, schedule: Q01DX009 (ip), vehicle: saline with Tween-80 96 % of control | [10] 96 % of control | [11] 96 % of control

O=C1C=CC(=O)N1c1ccccc1Cl (tested in a mixture with another compound)
inactive: dose: 100.0 mg/kg/injection, schedule: Q04DX003 (ip), vehicle: acetone 107 % of control | dose: 200.0 mg/kg/injection, schedule: Q04DX003 (ip), vehicle: acetone 100 % of control | dose: 400.0 mg/kg/injection, schedule: Q04DX003 (ip), vehicle: acetone 96 % of control

Nc1ncnc(N)c1N
inactive: dose: 100.0 mg/kg/injection, schedule: Q01DX001 (ip), vehicle: saline with Tween-80 104 % of control | dose: 200.0 mg/kg/injection, schedule: Q01DX001 (ip), vehicle: saline with Tween-80 105 % of control | dose: 400.0 mg/kg/injection, schedule: Q01DX001 (ip), vehicle: saline with Tween-80 98 % of control

O=C1N/C(=N\OCc2ccccc2)CC(NOCc2ccccc2)N1 (configuration not stated)
inactive: [12] 101 % of control | [13] 97 % of control | [14] 97 % of control

O=[N+]([O-])c1cc(F)ccc1O
inactive: [8] 94 % of control | [9] 101 % of control | [12] 97 % of control | [13] 106 % of control

COc1cc(CCCc2ccc(O)c(=O)cc2)cc(OC)c1OC
inactive: [12] 111 % of control | [13] 94 % of control | [14] 94 % of control

Oc1ccc(N=Nc2ccccc2)c(O)c1.Oc1ccc(N=Nc2ccccc2)c(O)c1.[Cu]
inactive: dose: 50.0 mg/kg/injection, schedule: Q01DX001 (ip), vehicle: carboxymethylcellulose (CMC) 90 % of control | dose: 400.0 mg/kg/injection, schedule: Q01DX001 (ip), vehicle: carboxymethylcellulose (CMC) 87 % of control

CC(=O)C(Cl)C(C)=O.CC(=O)C(Cl)C(C)=O.CO.CO.[Ni]
inactive: dose: 12.0 mg/kg/injection, schedule: Q01DX009 (ip), vehicle: other 91 % of control | dose: 25.0 mg/kg/injection, schedule: Q01DX009 (ip), vehicle: other 93 % of control | [6] 112 % of control | [7] 89 % of control

O=C(Nc1ccccc1)N(O)c1ccccc1
inactive: dose: 9.0 mg/kg/injection, schedule: Q01DX015 (ip), vehicle: methylcellulose (MC) 97 % of control | dose: 18.0 mg/kg/injection, schedule: Q01DX015 (ip), vehicle: methylcellulose (MC) 97 % of control | dose: 25.0 mg/kg/injection, schedule: Q01DX015 (ip), vehicle: methylcellulose (MC) 112 % of control | dose: 37.5 mg/kg/injection, schedule: Q01DX015 (ip), vehicle: methylcellulose (MC) 95 % of control | dose: 50.0 mg/kg/injection, schedule: Q01DX015 (ip), vehicle: methylcellulose (MC) 103 % of control | dose: 100.0 mg/kg/injection, schedule: Q01DX015 (ip), vehicle: methylcellulose (MC) 103 % of control | dose: 200.0 mg/kg/injection, schedule: Q01DX015 (ip), vehicle: methylcellulose (MC) 101 % of control

F[Si](C1CCCCC1)(C1CCCCC1)C1CCCCC1
inactive: [10] 92 % of control | [11] 91 % of control | dose: 400.0 mg/kg/injection, schedule: Q01DX009 (ip), vehicle: saline with Tween-80 89 % of control
